The values that follow come from patent US20190159451A1, “ACTIVE COMPOUND COMBINATIONS AND METHODS TO PROTECT THE PROPAGATION MATERIAL OF PLANTS” (Bayer CropScience Aktiengesellschaft, priority 2016, published 2019).

One series in a line: Log P (HCOOH). The series is classed as physicochemical. Particulars: HCOOH (formic acid); read-out: Log P-Wert (HCOOH).
A further series deals with Lucilia cuprina. Kind of series: Lucilia cuprina test (LUCICU). The class given is in vivo. Particulars: 48 h. Here is the method:
Lucilia cuprina—Test (LUCICU)
(§1) Solvent: dimethyl sulfoxide
10 mg active compound are dissolved in 0.5 ml Dimethylsulfoxid. Serial dilutions are made to obtain the desired rates.
Approximately 20 1st instar larvae of the Australian sheep blowfly (Lucilia cuprina) are transferred into a test tube containing minced horse meat and compound solution of the desired concentration.
After 2 days mortality in % is determined. 100% means all the larvae have been killed; 0% means none of the larvae have been killed.

The next series relates to Diabrotica balteata. Kind of series: Diabrotica balteata spray test. The series is classed as in vivo. Particulars: 160 μg/well, after 7 days, larvae on germinated wheat seeds. Here is the method: Diabrotica balteata—Spray Test
(§2) Solvent: 78.0 parts by weight of acetone • • 1.5 parts by weight of dimethylformamide
(§3) Emulsifier: alkylarylpolyglycol ether
(§4) To produce a suitable preparation of active compound, 1 part by weight of active compound is mixed with the stated amount of solvent, and the concentrate is diluted with water, containing an emulsifier concentration of 1000 ppm, to the desired concentration. Further test concentrations are prepared by dilution with emulsifier containing water.
Soaked wheat seeds (Triticum aestivum) are placed in a multiple well plate filled with agar and some water and are incubated for 1 day to germinate (5 seeds per well). The germinated wheat seeds are sprayed with a test solution containing the desired concentration of the active ingredient. Afterwards each unit is infected with 10-20 larvae of the banded cucumber beetle (Diabrotica balteata).
After 7 days efficacy in % is determined. 100% means all the seedlings have grown up like in the untreated, uninfected control; 0% means none of the seedlings have grown.

Another series deals with Musca domestica. Kind of series: Musca domestica test (MUSCDO). Particulars: for mortality: after 2 days, adult house flies. The class given is in vivo. Here is the method: Musca domestica—Test (MUSCDO)
as §1
To produce a suitable preparation of active compound, 10 mg of active compound are dissolved in 0.5 ml solvent, and the concentrate is diluted with water to the desired concentration.
10 adult house flies (Musca domestica) are transferred into a container, containing a sponge soaked with a mixture of sugar solution and compound solution of the desired concentration.
After 2 days mortality in % is determined. 100% means all the flies have been killed; 0% means none of the flies have been killed.

Series [1] concerns Myzus persicae. Kind of series: Myzus persicae spray test. The class given is in vivo. The conditions noted are these: for mortality: 100 g/ha, after 6 days, Chinese cabbage leaf disks. The method, then:
Myzus persicae—Spray Test
(§5) Solvent: 78.0 parts by weight acetone • 1.5 parts by weight dimethylformamide
as §3
(§6) To produce a suitable preparation of active compound, 1 part by weight of active compound is mixed with the stated amount of solvents and is diluted with water, containing an emulsifier concentration of 1000 ppm, to the desired concentration. Further test concentrations are prepared by dilution with emulsifier containing water.
Chinese cabbage (Brassica pekinensis) leaf disks infected with all instars of the green peach aphid (Myzus persicae), are sprayed with a preparation of the active ingredient of the desired concentration.
After 6 days mortality in % is determined. 100% means all aphids have been killed and 0% means none of the aphids have been killed.

The next series relates to Ctenocephalides felis. Kind of series: Ctenocephalides felis in-vitro contact test, adult cat flea. The class given is in vivo. The conditions noted are these: 5 μg/cm^2 (=500 g/ha), after 48 hours. The method, then:
Ctenocephalides felis—In-Vitro Contact Tests Adult Cat Flea
9 mg compound is solved in 1 ml acetone and diluted with acetone to the desired concentration. 250 μl of the test solution is filled in 25 ml glass test tubes and homogeneously distributed on the inner walls by rotation and tilting on a shaking device (2 h at 30 rpm). With a compound concentration of 900 ppm, an inner surface of 44.7 cm^2 and a homogeneous distribution, a dose of […] is achieved.
After the solvent has evaporated, each test tube is filled with 5-10 adult cat fleas (Ctenocephalides felis), closed with a perforated lid and incubated in a lying position at room temperature and relative humidity. After 48 hours efficacy is determined. The fleas are patted on the ground of the tubes and are incubated on a heating plate at 45-50° C. for at most 5 minutes. Immotile or uncoordinated moving fleas, which are not able to escape the heat by climbing upwards, are marked as dead or moribund.
An efficacy of 100% means all fleas are dead or moribund; 0% means no fleas are dead or moribund.

Series [2] deals with Myzus persicae. Kind of series: Myzus persicae oral test. The class given is in vivo. The method, then:
Solvent: 100 parts by weight acetone
To produce a suitable preparation of active compound, 1 part by weight of active compound is mixed with the stated amount of solvent, and the concentrate is diluted with water to the desired concentration. 50 μl compound solution is filled in microtiter plates and 150 μl IPL41 insect medium (33%+15% sugar) is added to obtain a total volume of […] per well. Afterwards the plates are sealed with parafilm through which a mixed population of the green peach aphid (Myzus persicae) can suck on the compound preparation.
After 5 days mortality in % is determined. 100% means all aphids have been killed and 0% means none of the aphids have been killed.

In another series the test system is Nilaparvata lugens. Kind of series: Nilaparvata lugens spray test. The class given is in vivo. The method, then: Nilaparvata lugens—Spray Test
as §2, §3, §6
Rice plants (Oryza sativa) are sprayed with a preparation of the active ingredient of the desired concentration and the plants are infested with the brown planthopper (Nilaparvata lugens).
After 4 days mortality in % is determined. 100% means all planthoppers have been killed and 0% means none of the planthoppers have been killed.

The next series deals with Nezara viridula. Nature of the series: Nezara viridula spray test. The series is classed as in vivo. The method, then: Nezara viridula—Spray Test
as §2, §3, §4
Barley plants (Hordeum vulgare) infested with larvae of the southern green stink bug (Nezara viridula) are sprayed with a test solution containing the desired concentration of the active ingredient.
After 4 days mortality in % is determined. 100% means all the stink bugs have been killed; 0% means none of the stink bugs have been killed.

The next series relates to Tetranychus urticae. Kind of series: whole plant or invertebrate. The conditions noted are these: in Phaseolus vulgaris, foliar, 144 h. The class given is in vivo. The method, then: Tetranychus urticae—Spray Test OP-Resistant
as §5, §3, §6
French bean (Phaseolus vulgaris) leaf disks infected with all instars of the two spotted spidermite (Tetranychus urticae), are sprayed with a preparation of the active ingredient of the desired concentration.
After 6 days mortality in % is determined. 100% means all spider mites have been killed and 0% means none of the spider mites have been killed.

In another series the test system is Phaedon cochleariae. Nature of the series: Phaedon cochleariae spray test. The class given is in vivo. The conditions noted are these: 20 g/ha, after 7 days, larvae on Chinese cabbage leaf disks. The method, then: Phaedon cochleariae—Spray Test
as §2, §3, §6
Chinese cabbage (Brassica pekinensis) leaf disks are sprayed with a preparation of the active ingredient of the desired concentration. Once dry, the leaf disks are infested with mustard beetle larvae (Phaedon cochleariae).
After 7 days mortality in % is determined. 100% means all beetle larvae have been killed and 0% means none of the beetle larvae have been killed.

Setting [3] is: Myzus persicae, in Brassica rapa, foliar, 144 h.

Molecules are shown by their SMILES.

A word on the mortality: it is the share of the test organisms that died. Take `O=C(/C=C1\SCCN1Cc1ccc(Cl)nc1)C(F)(F)F` [Example I-1, 3-[3-[(6-Chloro-3-pyridinyl)methyl]-2-thiazolidinylidene]-1,1,1-trifluoro-2-propanone]: the chromatographic logP in the series “Log P (HCOOH)” turned out to be 2.21. In addition, the mortality at 100 ppm in the series with Lucilia cuprina worked out at 100%. In addition, the “efficacy (seedlings grown)” value in the series on Diabrotica balteata is on record as 100%. For the same compound, the mortality at 4 ppm in the series on Musca domestica (Musca domestica, 48 h) was found to be 90%. The same compound displayed a mortality at 100 g/ha with Myzus persicae [1] (setting [3]) of 90%. Also, the “efficacy (fleas dead or moribund)” value in the series on Ctenocephalides felis was found to be 100%.

On to `O=C(/C=C1\SCCN1Cc1ccc(F)nc1)C(F)(F)F` [Example I-2, 3-[3-[(6-Fluoro-3-pyridinyl)methyl]-2-thiazolidinylidene]-1,1,1-trifluoro-2-propanone], for which the chromatographic logP in the series “Log P (HCOOH)” is 2.25. In the series with Lucilia cuprina, this compound registered a mortality at 100 ppm of 100%. Further, the “efficacy (seedlings grown)” value in the series on Diabrotica balteata is 100%. The mortality at 4 ppm in the series on Musca domestica (Musca domestica, 48 h) was 80%. Moreover, the mortality at 20 ppm in the series on Musca domestica (Musca domestica, 48 h) amounted to 95%; in the series with Myzus persicae [2] (Myzus persicae, po, 120 h), 100%. Besides, the mortality at 500 g/ha in the series with Myzus persicae [1] (setting [3]) was determined as 100%; in the series on Nilaparvata lugens (Nilaparvata lugens, in Oryza sativa, 96 h) it was 100%; in the series on Nezara viridula (Nezara viridula, in Hordeum vulgare, 96 h) it was 90%; with Tetranychus urticae, 80%. Further, the “efficacy (fleas dead or moribund)” value in the series with Ctenocephalides felis was 100%.

In the case of `O=C(/C=C1\NCCN1Cc1ccc(Br)nc1)C(F)(F)F` [Example I-3, 3-[1-[(6-Bromo-3-pyridinyl)methyl]-2-imidazolidinylidene]-1,1,1-trifluoro-2-propanone], the mortality at 100 ppm in the series with Lucilia cuprina is 100%. Moreover, the “efficacy (seedlings grown)” value in the series on Diabrotica balteata turned out to be 100%. In the series with Musca domestica (Musca domestica, 48 h), this compound gave a mortality at 4 ppm of 80%. In the series with Myzus persicae [1] (setting [3]), this compound displayed a mortality at 100 g/ha of 90%. Also, in the series on Ctenocephalides felis, the “efficacy (fleas dead or moribund)” value was found to be 100%.

For the compound `O=C(C=C1SCCN1Cc1ccc(Br)nc1)C(F)(F)F` [Example I-4], in the series on Diabrotica balteata, the “efficacy (seedlings grown)” value came to 100%. In addition, in the series on Musca domestica (4 ppm), the mortality came out at 100%. In addition, the “efficacy (fleas dead or moribund)” value with Ctenocephalides felis turned out to be 100%.

On to `O=C(C=C1NCCN1Cc1ccc(Cl)nc1)C(F)(F)F` [Example I-5], for which the mortality in the series with Musca domestica (4 ppm) stood at 100%. For the same compound, the “efficacy (fleas dead or moribund)” value in the series on Ctenocephalides felis was 100%.

As for `O=C(C=C1NCCCN1Cc1ccc(F)nc1)C(F)(F)F` [Example I-6], the “efficacy (seedlings grown)” value with Diabrotica balteata came to 100%. The mortality with Musca domestica (20 ppm) is reported as 100%. Moreover, in the series with Ctenocephalides felis, the “efficacy (fleas dead or moribund)” value was found to be 100%.

Consider `O=C(C=C1NCCCN1Cc1ccc(Cl)nc1)C(F)(F)F` [Example I-7], for which the results for the mortality in the series on Phaedon cochleariae and with Myzus persicae [1] were 100% and 90%, respectively. Further, in the series with Ctenocephalides felis, the “efficacy (fleas dead or moribund)” value stood at 100%.

Regarding `O=C(C=C1NCCCN1Cc1ccc(Br)nc1)C(F)(F)F` [Example I-8], the “efficacy (seedlings grown)” value in the series on Diabrotica balteata was 100%. Moreover, the mortality turned out to be 100% in the series on Musca domestica (20 ppm); 100% in the series with Phaedon cochleariae; 100% in the series with Myzus persicae [2] (20 ppm, after 5 days, oral); 90% in the series on Myzus persicae [1]; 100% in the series with Nilaparvata lugens (500 g/ha, after 4 days, rice plants); 90% in the series with Nezara viridula (500 g/ha, after 4 days, larvae on barley plants). Also, the “efficacy (fleas dead or moribund)” value in the series on Ctenocephalides felis is given as 100%.
